Measurements from paper PMC5053573, “Structure-Based Design of Tetrahydroisoquinoline-7-carboxamides as Selective Discoidin Domain Receptor 1 (DDR1) Inhibitors” (Journal of Medicinal Chemistry, 2016).

How the values were obtained:
[1] = target: T1, DDR2 (Homo sapiens, UniProt Q16832); assay: LANCE ULTRA kinase assay, DDR2; type: biochemical
T1 sequence (Q16832 22-855): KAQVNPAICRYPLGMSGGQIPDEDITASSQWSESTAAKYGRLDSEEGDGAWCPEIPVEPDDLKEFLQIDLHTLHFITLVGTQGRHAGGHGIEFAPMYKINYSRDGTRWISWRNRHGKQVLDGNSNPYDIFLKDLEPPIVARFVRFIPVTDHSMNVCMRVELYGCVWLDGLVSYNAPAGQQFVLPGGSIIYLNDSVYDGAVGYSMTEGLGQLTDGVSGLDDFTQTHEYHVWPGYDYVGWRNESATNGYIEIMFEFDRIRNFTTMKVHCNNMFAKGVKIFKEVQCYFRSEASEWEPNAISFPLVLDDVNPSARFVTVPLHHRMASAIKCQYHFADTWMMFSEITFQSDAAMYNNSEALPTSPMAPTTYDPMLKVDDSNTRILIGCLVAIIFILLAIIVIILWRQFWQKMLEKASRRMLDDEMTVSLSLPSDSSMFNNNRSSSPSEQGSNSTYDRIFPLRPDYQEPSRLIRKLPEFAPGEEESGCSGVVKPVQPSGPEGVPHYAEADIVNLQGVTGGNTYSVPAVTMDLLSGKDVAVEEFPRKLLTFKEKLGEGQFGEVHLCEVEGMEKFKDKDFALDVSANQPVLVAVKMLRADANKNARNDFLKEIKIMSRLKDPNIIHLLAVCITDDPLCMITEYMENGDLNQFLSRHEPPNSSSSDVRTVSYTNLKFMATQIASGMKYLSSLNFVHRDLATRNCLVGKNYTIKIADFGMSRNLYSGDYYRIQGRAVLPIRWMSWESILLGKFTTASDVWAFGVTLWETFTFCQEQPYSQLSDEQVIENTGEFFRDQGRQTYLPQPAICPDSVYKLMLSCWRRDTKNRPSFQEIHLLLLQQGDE

[2] = target: T2, TRKB (Homo sapiens, UniProt Q16620); assay: KINOMEscan binding constant, TRKB; settings: read-out: Binding affinity (Kd, nM) TRKB
T2 construct: purchased DiscoveRx
T2 sequence (Q16620 32-822): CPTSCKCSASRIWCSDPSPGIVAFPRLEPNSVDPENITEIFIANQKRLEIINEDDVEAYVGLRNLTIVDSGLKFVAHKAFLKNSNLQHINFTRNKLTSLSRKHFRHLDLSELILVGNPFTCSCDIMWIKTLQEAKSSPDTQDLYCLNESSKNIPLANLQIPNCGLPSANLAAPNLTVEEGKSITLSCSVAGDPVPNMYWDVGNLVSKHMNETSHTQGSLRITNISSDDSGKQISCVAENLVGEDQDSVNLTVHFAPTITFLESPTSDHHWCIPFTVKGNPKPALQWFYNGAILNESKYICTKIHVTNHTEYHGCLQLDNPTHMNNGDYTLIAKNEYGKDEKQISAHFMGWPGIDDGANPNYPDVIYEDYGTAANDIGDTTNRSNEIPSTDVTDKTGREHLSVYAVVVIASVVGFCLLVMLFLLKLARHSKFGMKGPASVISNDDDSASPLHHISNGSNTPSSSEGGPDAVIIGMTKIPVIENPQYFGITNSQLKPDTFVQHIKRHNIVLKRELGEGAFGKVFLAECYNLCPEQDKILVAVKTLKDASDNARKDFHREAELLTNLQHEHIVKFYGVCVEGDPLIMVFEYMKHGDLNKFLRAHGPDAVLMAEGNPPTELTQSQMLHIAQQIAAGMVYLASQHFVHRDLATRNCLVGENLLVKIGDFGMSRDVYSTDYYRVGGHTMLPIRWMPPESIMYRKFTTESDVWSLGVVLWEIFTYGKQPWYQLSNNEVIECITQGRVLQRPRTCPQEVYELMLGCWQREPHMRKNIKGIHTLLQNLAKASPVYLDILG

[3] = target: DDR1 (Homo sapiens, UniProt Q08345)
DDR1, sequence (Q08345 19-913): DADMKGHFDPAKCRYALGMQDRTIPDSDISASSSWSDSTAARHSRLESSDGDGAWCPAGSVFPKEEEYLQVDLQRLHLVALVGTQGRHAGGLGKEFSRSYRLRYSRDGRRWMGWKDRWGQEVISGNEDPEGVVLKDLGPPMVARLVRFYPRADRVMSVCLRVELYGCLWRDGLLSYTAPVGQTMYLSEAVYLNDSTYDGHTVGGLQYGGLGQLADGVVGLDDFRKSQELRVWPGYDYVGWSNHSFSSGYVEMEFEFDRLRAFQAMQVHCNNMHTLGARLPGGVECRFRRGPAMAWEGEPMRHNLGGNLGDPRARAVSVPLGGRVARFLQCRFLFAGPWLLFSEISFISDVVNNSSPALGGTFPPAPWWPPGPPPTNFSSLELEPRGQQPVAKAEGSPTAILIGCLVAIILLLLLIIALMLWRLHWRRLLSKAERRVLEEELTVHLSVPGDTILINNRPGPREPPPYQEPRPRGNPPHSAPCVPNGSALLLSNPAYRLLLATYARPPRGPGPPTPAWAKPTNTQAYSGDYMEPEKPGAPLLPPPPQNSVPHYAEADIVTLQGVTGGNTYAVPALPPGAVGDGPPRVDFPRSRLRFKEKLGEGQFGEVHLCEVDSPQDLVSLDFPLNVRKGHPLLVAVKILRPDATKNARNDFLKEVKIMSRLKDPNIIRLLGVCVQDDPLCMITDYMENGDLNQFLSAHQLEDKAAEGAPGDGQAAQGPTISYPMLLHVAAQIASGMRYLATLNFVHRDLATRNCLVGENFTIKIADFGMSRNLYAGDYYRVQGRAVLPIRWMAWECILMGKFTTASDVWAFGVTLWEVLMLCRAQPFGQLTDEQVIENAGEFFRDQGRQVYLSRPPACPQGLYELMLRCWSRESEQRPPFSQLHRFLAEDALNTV

Row | Compound | IC50 [1] [nM] | Kd [2] [nM] | DDR1 inhibition, result in words [3]
1 | CN1CCN(Cc2cc(NC(=O)c3ccc4c(c3)CN(c3cncnc3)CC4)cc(C(F)(F)F)c2)CC1 [Compound 6a] | > 7900 | 29 ± 5.5 | 
2 | CN1CCN(Cc2cc(NC(=O)c3ccc4c(c3)CN(c3cccnc3)CC4)cc(C(F)(F)F)c2)CC1 [Compound 6h] | > 4000 | 94 ± 6 | 
3 | C[C@H]1CN(c2cncnc2)Cc2cc(C(=O)Nc3cc(CN4CCN(C)CC4)cc(C(F)(F)F)c3)ccc21 [Compound 6b] |  | 5.2 ± 1 | 
4 | C[C@@H]1CN(c2cncnc2)Cc2cc(C(=O)Nc3cc(CN4CCN(C)CC4)cc(C(F)(F)F)c3)ccc21 [Compound 6c] |  | 36 ± 2.5 | 
5 | CC(C)[C@H]1CN(c2cncnc2)Cc2cc(C(=O)Nc3cc(CN4CCN(C)CC4)cc(C(F)(F)F)c3)ccc21 [Compound 6f] | > 10000 | 340 ± 5 | substantial potency loss
6 | CC[C@H]1CN(c2cncnc2)Cc2cc(C(=O)Nc3cc(CN4CCN(C)CC4)cc(C(F)(F)F)c3)ccc21 [Compound 6d] | 546 ± 49 | 22 ± 1 | 
7 | CN1CCN(Cc2cc(NC(=O)c3ccc4c(c3)CN(c3ccccc3)CC4)cc(C(F)(F)F)c2)CC1 [Compound 6i] | > 10000 | > 1000 | totally abolished DDR1 inhibitory potency
8 | CC(C)[C@@H]1CN(c2cncnc2)Cc2cc(C(=O)Nc3cc(CN4CCN(C)CC4)cc(C(F)(F)F)c3)ccc21 [Compound 6g] | > 10000 | > 1000 | almost no DDR1 inhibition
9 | CC[C@@H]1CN(c2cncnc2)Cc2cc(C(=O)Nc3cc(CN4CCN(C)CC4)cc(C(F)(F)F)c3)ccc21 [Compound 6e] | > 10000 | 500 ± 30 | 
